Results published in patent US10561748B2, “Anthranilic acid derivatives” (priority 2014, dated 2020).
Like-named read-outs stand apart in the source and are kept apart here.

Legend:
[1] = Everted gut sac: crossing to mucosal compartment and stability; type: in vitro ADME
Protocol: The compound of Formula la has been inserted in serosal compartment of […] and for 120 mins has been tested: • 1. The concentration in mucosal compartment • 2. The stability in serosal/mucosal compartment

[2] = Protein Plasma Binding (PPB) assay (TRANSIL); type: in vitro ADME, human; conditions: human serum albumin and human α1 acid glycoprotein (TRANSIL); for fraction unbound: estimation based on human serum albumin and human α1 acid glycoprotein, read-out: fb (fraction bound to plasma proteins) (converted); for Kd: human, read-out: kD (dissociation constant, plasma protein binding)
Protocol: (§1) Plasma protein binding is measured in terms of the dissociation constant KD: KD=[compound 1a] [P]/[compound 1a-P], wherein [compound 1a-P] is the concentration of compound of Formula 1a bound to the protein P and where [compound 1a] denotes the free concentration of compound of Formula 1a and [P] denotes the free concentration of protein. […] This means there is high free unbound radiotracer available to bind with the target protein for detection.
(§2) fb represents an estimation of the fraction bound to plasma proteins based on human serum albumin and human α1 acid glycoprotein. Binding to other low abundance plasma proteins like lipoproteins, transcortin, and sex hormone binding protein is not considered.
(§3) The TRANSIL Quality Index (TQI) is based on five independent measures derived from the data analysis. For each individual measure a partial quality score on a scale between 0 and 10 is attributed to the estimate. 0 represents lowest quality, while 10 represents highest quality. The final quality index is a weighted average of the partial quality scores.
(§4) Plasma protein binding is measured in terms of the dissociation constant KD: KD=[TQD]

[3] = system: plasma proteins based on human serum albumin and human α1 acid glycoprotein; experiment: Protein Plasma Binding (PPB) assay (TRANSIL); type: in vitro ADME; conditions: read-out: kD (dissociation constant, plasma protein binding)
Protocol: as §1, §2, §3, §4

[4] = system: P-gp; experiment: Apparent permeability in Caco-2 cells (BA/AB); type: in vitro ADME; conditions: human, BA/AB >2 = transported by P-gp, read-out: Apparent Permeability (B→A/A→B)
Protocol: Ligands displaying BA/AB >2 are transported while ligands having BA/AB <2 are not transported by P-gp.
Caco-2 cells were seeded onto a Millicell assay system (Millipore), where a cell monolayer is set in between a filter cell and a receiver plate, at a density of 10,000 cells/well. The culture medium was replaced every 48 h and the cells kept for 21 days in culture. The Trans Epithelial Electrical Resistance (TEER) of the monolayers was measured daily, before and after the experiment, using an epithelial voltohometer (Millicell-ERS). Generally, TEER values greater than 1000× for a 21 day culture, are considered optimal. Caco-2 cells were seeded onto a Millicell assay system (Millipore), where a cell monolayer is set in between a filter cell and a receiver plate, at a density of 10,000 cells/well. The culture medium was replaced every 48 h and the cells kept for 21 days in culture. The Trans Epithelial Electrical Resistance (TEER) of the monolayers was measured daily, before and after the experiment, using an epithelial voltohometer (Millicell-ERS). Generally, TEER values greater than 1000× for a 21 day culture, are considered. After 21 days of Caco-2 cell growth, the medium was removed from filter wells and from the receiver plate, which were filled with fresh MSS buffer (Invitrogen). […] The apparent permeability (Papp), in units of nm/s, was calculated.

[5] = molecular target: T1, P-gp (Homo sapiens, UniProt P08183); experiment: ATP-ase cell depletion (luminescence) in MDCK-MDR1 cells; type: cell-based; set-up: expressed in transfected cells; host or cells: MDCK-P-gp (MDCK cells stably overexpressing human P-gp); conditions: at 1 μM, 2 h
T1 sequence (P08183 whole entry): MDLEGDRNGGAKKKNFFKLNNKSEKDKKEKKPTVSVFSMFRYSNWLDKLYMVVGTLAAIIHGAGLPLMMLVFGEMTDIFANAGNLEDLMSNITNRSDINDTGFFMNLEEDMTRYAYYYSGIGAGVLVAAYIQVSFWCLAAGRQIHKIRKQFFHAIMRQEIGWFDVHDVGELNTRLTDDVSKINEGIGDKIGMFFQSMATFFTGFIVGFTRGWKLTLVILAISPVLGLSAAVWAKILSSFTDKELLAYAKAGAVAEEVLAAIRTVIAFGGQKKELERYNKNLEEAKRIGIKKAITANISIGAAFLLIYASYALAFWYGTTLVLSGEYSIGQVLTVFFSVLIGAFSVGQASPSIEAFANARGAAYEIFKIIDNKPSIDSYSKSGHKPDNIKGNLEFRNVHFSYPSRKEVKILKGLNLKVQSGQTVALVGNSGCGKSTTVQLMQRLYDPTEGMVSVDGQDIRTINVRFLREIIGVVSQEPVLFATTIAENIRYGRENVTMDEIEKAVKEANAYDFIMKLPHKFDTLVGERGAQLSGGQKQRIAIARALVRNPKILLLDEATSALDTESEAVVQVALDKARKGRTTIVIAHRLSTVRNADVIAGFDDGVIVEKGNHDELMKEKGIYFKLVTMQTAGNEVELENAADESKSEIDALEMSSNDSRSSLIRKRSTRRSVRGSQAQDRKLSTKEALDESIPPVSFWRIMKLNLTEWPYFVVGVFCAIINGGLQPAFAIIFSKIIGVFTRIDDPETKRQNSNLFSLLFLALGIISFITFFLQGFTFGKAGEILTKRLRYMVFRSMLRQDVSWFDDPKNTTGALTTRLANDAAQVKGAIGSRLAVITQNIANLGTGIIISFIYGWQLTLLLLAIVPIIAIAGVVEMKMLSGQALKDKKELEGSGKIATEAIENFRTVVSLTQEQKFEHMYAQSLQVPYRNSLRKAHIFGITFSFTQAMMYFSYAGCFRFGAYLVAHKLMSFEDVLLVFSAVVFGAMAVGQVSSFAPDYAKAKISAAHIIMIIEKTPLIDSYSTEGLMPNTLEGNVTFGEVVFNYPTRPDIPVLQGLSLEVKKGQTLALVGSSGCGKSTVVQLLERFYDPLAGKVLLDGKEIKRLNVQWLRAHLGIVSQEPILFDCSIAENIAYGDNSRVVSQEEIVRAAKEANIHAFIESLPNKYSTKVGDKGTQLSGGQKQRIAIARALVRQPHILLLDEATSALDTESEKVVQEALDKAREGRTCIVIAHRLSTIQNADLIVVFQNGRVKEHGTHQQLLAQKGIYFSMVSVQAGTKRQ
Protocol: In order to establish the intrinsic mechanism of compound of Formula la in […] has been defined if it was able to deplete ATP. Compound able to deplete ATP can be considered P-gp substrate while ligand unable to deplete ATP is considered P-gp inhibitor.
The MDCK-MDR1 cells were seeded into 96-well microplate in 100 μL of complete medium at a density 2×10^4 cells/well. The plate was incubated overnight in a humidified atmosphere 5% CO2 at 37° C. The medium was removed and 100 μL of complete medium in the presence or absence of different concentrations of compound of Formula 1a was added. The plate was incubated for 2 h in a humidified atmosphere 5% CO2 at 37° C. Fifty microlitres of mammalian cell lysis solution was added to all wells and the plate was shaken for 5 min in an orbital shaker. Fifty microlitres of substrate solution was added to all wells and the plate was shaken for 5 min in an orbital shaker. The plate was dark adapted for 10 min and the luminescence was measured.

[6] = molecular target: T1, P-gp; experiment: cell-based
Source text: (§5) • A. Three different cell lines have been employed: MDCK-P-gp (fluorescent probe Calcein-AM), MDCK-BCRP (florescent probe Rhodamine) and MDCK-MRP1 (fluorescent probe Calcein-AM). These cells overexpress stably human P-gp or BCRP or MRP1. • i.

[7] = molecular target: T2, MRP1 (Homo sapiens, UniProt P33527); experiment: Activity in MDCK-MRP1 cells, fluorescent probe Calcein-AM; type: cell-based
T2 construct: expressed in transfected cells; host or cells: MDCK-MRP1
T2 sequence (P33527 whole entry): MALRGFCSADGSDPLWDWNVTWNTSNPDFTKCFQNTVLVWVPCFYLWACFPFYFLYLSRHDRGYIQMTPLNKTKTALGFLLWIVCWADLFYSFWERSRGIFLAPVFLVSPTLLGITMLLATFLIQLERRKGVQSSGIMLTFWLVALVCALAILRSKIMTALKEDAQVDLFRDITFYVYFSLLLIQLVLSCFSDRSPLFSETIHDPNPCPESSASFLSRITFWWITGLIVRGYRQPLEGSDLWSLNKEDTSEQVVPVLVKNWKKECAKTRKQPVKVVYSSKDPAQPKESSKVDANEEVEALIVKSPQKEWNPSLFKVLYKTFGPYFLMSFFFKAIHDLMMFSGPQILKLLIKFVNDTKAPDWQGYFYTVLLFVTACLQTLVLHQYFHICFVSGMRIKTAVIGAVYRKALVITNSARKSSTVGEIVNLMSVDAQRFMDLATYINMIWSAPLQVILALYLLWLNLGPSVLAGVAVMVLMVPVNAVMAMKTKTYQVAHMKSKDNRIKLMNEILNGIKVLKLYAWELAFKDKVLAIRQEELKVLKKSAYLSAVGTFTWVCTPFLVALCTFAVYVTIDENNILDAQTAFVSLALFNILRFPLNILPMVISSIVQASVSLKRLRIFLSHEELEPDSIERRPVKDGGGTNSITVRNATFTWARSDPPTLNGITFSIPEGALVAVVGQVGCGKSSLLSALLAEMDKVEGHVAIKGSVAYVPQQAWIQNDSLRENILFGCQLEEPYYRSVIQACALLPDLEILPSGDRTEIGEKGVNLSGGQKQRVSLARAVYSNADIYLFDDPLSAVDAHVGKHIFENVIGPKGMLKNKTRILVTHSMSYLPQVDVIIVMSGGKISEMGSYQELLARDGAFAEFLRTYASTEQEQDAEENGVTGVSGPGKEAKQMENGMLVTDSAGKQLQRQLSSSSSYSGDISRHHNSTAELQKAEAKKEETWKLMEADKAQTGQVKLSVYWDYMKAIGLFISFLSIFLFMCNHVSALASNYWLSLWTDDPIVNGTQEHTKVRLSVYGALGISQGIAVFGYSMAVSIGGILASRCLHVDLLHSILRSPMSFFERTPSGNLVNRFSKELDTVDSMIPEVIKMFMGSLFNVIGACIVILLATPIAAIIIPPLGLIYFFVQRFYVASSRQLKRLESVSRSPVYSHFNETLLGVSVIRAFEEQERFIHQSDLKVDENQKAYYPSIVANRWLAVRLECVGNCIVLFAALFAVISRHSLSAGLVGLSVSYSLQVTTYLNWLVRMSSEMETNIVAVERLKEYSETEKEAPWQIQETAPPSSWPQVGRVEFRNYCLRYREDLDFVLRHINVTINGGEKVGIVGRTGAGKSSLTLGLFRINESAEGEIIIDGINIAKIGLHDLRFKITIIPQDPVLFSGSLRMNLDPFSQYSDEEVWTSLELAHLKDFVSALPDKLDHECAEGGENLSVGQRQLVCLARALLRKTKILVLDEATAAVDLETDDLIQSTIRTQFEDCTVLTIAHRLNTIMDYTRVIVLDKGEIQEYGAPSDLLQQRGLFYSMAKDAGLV
Source text: as §5

[8] = molecular target: T3, BCRP (Homo sapiens, UniProt Q9UNQ0); experiment: Activity in MDCK-BCRP cells, fluorescent probe Rhodamine; type: cell-based
T3 construct: expressed in transfected cells; host or cells: MDCK-BCRP
T3 sequence (Q9UNQ0 1-655): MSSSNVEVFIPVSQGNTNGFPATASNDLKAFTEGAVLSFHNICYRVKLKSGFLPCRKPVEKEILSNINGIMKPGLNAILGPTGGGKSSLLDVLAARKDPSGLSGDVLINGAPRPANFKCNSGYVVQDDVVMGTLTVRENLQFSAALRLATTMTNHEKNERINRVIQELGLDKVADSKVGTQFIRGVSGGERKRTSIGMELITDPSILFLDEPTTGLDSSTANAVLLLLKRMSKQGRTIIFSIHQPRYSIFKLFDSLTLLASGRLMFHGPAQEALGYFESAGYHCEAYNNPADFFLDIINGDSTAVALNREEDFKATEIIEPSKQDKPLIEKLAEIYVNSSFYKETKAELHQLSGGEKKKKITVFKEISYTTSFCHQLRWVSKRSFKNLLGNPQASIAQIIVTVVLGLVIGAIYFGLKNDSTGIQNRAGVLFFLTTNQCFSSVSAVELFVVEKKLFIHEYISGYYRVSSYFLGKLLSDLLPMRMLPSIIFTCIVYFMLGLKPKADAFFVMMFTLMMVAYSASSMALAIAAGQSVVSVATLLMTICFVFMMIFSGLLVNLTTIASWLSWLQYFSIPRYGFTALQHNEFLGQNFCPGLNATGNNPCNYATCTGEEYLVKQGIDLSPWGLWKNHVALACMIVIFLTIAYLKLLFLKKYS
Source text: as §5

[9] = system: MDCK-MDR1; experiment: Cytotoxicity, MTT assay; type: cell-based; conditions: 100 microM
Protocol: Determination of cell growth was performed using the MTT assay at 24 and 48 h. On day 1, 30,000 cells/well were seeded into96-well plates in a volume of 100 μL. On day 2, the various drugs concentration (0.1-100 μM) were added. In all the experiments, the various drug-solvents (ethanol, DMSO) were added in each control to evaluate a possible solvent cytotoxicity. After the established incubation time with compound of Formula 1a, MTT(0.5 mg/mL) was added to each well, and after 3 h incubation at 37° C., the supernatant was removed.

[10] = Metabolites (human microsomes), unchanged form; type: in vitro ADME
Source text: Metabolites (Human Microsomes)

[11] = Metabolic stability by rat liver microsomes; type: in vitro ADME
Protocol: Metabolic stability of compound of Formula la was evaluated by incubating test compounds with rat liver microsomes and monitoring parent disappearance within 30 mins using HPLC.
• Column: KINE IEX-C18 • Column temperature: 40° C. • Mobile phase: Gradient. A was 0.1% formic acid in water. B was MeCN. A:B 95:5 to 30:70 over 10 min, to 20:80 over 5 min. • Flow rate: 0.5 ml/min • Injection volume: 50 μL
FIG. 5 illustrated a Chromatogram of Formula la incubated with microsomes fraction only without NADPH regenerating system wherein 489.88 mAU*s represents ligand concentration after incubation Ccontrol. FIG. 6 illustrates a Chromatogram of compound of Formula 1a incubated in the presence of microsomes and NADPH regenerating system wherein 429.56 mAU*s represents ligand concentration Cparent.

[12] = system: P-gp; experiment: In vivo bio-distribution, microPET/CT brain uptake; set-up: species or system mice
Protocol: A set of wild type mice subjects were injected with compound of formula 1b (i.e. [^18F]-labeled compound of formula 1a). Immediately after injection of the tracer compound, scanning was performed on the subject using a microPET/CT system. The study was conducted in deep anaesthesia (oxygen/1.5-2 isoflurane w/o drug-induction) and the animals were treated by adhering to regulatory, ethical and Animal Welfare guidelines subsequent to obtaining approvals. […] The extraction remained constant for the duration of the study and was indicative of a possible selective binding to brain structures.

[13] = molecular target: T1, P-gp; set-up: expressed in transfected cells; host or cells: MDCK-P-gp (MDCK cells stably overexpressing human P-gp); conditions: literature value; read-out: EC50 as reported in Kazunori Kawamura, et al.; cited from earlier work

Row | fraction unbound [2] | Kd [2] [nM] | ATP-ase cell depletion [5] [%] | P-gp EC50 [6] | EC50 [7] [nM] | EC50 [8] [nM] | SMILES | Cytotoxicity (MTT) ([9]; 24 h) [%] | Cytotoxicity (MTT) ([9]; 48 h) [%] | other results
1 | 0.539 | 717000 | 20 | 8,0±0.2 nM | > 500 | > 500 | COc1cc(NC(=O)c2cnc3ccccc3c2)c(C(=O)Nc2ccc(CCN3CCc4cc(OCCF)c(OC)cc4C3)cc2)cc1OC [Formula 1a, N-(2-((4-(2-(6-(2-fluoroethoxy)-7-methoxy-3,4-dihydroisoquinolin-2(1H)-yl)ethyl)phenyl)carbamoyl)-4,5-dimethoxyphenyl)quinoline-3-carboxamide] | 5 | 15 | Stability in serosal compartment ([1]; after 60 min): 83%; Stability in serosal compartment ([1]; after 120 min): 75%; Crossing into the mucosal compartment ([1]; inserted in serosal compartment, 120 mins): unable to cross into the mucosal compartment; Kd [3]: 717000 nM; efflux ratio at 120 min [4]: 16 ± 0.7; EC50 [6]: 8 nM; Unchanged form (%) ([10]; after 30 min): 91%; Unchanged form (%) ([10]; after 60 min): 85%; % remaining at 30 min [11]: 88%
2 | – | – | – | – | – | – | COc1cc(NC(=O)c2cnc3ccccc3c2)c(C(=O)Nc2ccc(CCN3CCc4cc(OCC[18F])c(OC)cc4C3)cc2)cc1OC [Formula 1b] | – | – | Brain uptake (microPET) ([12]; P-gp knock-out mice (MDR 1a/b −/−)): same reduction of uptake at brain level; Brain uptake (microPET) ([12]; wild type mice, co-injection of tariquidar): strongly reduced; Brain uptake (microPET) ([12]; wild type mice, tracer alone): binding of radiolabeled compound of formula 1b at brain level
3 | 0.095 | 64700 | 30 | 4,0±0.2 nM | > 500 | > 80 | COc1cc2c(cc1OC)CN(CCc1ccc(NC(=O)c3cc(OC)c(OC)cc3NC(=O)c3cnc4ccccc4c3)cc1)CC2 [Tariquidar, reference compound] | 8 | 19 | EC50 [13]: 24 nM
